Reference: patent publication US20100204142A1, “USE OF THE PEPTIDE PHPFHLFVY (RENIN INHIBITOR) AS A THERAPEUTIC AGENT” (priority 2007, published 2010)
Where no end group is shown, it is not given here.

Tested on: drug-resistant Mycobacterium tuberculosis
Conditions: drug-resistant Mycobacterium tuberculosis growth; peptide 10 micrograms per ml; seven days

## PHPFHLFVY-OH [Renin inhibitor]
  % inhibition: 0.0%
